Reference: ChEMBL document CHEMBL4680369, “Synthesis of HDAC Inhibitor Libraries via Microscale Workflow” (ACS Med Chem Lett, 2021)
pIC50: −log10 of the molar value.

Assays:
Histone deacetylase 2 [1] = target: T1, Histone deacetylase 2 (Homo sapiens, UniProt Q92769); test: Inhibition of HDAC2 (unknown origin) using compound purified by traditional preparative HPLC work-flow
Histone deacetylase 1 [2] = target: T2, Histone deacetylase 1 (Homo sapiens, UniProt Q13547); test: Inhibition of HDAC1 (unknown origin) using compound purified by traditional preparative HPLC work-flow
T2 sequence (Q13547 whole entry): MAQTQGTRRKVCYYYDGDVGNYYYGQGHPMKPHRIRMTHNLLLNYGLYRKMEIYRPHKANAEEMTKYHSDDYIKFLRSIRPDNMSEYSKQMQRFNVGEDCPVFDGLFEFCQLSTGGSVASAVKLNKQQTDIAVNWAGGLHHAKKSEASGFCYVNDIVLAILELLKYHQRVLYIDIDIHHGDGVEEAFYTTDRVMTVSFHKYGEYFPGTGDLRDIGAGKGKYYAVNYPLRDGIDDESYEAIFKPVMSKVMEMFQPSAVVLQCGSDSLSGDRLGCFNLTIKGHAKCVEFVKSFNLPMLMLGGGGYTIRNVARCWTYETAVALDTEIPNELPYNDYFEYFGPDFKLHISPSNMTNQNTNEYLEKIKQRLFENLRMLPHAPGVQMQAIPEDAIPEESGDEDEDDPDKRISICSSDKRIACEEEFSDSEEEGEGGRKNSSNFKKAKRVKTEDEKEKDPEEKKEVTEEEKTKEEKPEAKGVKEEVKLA

Histone deacetylase 2 [3] = target: T1, Histone deacetylase 2; test: Inhibition of HDAC2 (unknown origin) using compound purified by microgram-scale HPLC work-flow
Histone deacetylase 1 [4] = target: T2, Histone deacetylase 1; test: Inhibition of HDAC1 (unknown origin) using compound purified by microgram-scale HPLC work-flow

T1 sequence (Q92769 whole entry): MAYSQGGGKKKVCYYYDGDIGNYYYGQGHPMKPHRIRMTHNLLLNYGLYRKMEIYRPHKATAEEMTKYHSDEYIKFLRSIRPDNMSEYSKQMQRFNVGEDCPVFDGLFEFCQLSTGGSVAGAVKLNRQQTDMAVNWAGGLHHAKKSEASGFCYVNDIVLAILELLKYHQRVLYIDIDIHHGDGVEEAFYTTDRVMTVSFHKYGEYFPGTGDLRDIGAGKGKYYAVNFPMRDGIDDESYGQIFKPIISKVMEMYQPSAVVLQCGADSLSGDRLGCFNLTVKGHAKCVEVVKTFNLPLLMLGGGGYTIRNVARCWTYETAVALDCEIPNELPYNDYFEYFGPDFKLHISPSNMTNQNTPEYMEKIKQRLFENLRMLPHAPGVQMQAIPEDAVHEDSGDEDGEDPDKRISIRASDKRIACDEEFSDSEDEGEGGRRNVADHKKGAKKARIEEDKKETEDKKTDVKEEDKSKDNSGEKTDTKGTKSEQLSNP

| pIC50 (Histone deacetylase 2 [1]) | pIC50 (Histone deacetylase 1 [2]) | pIC50 (Histone deacetylase 2 [3]) | pIC50 (Histone deacetylase 1 [4]) | Compound |
| --- | --- | --- | --- | --- |
| 8.54 | 9.30 |  |  | CCC(=O)CCCCC[C@H](NC(=O)[C@H]1CC12CCN(C)CC2)c1ncc(-c2cn(C)c3ccccc23)[nH]1 |
| 6.46 | 7.15 | 6.60 | 7.36 | CCC(=O)CCCCC[C@H](NC(=O)[C@H]1CC12CCN(C)CC2)c1ncc(-c2ccn3ncnc3c2)[nH]1 |
|  |  | 7.80 | 8.74 | CCC(=O)CCCCC[C@H](NC(=O)[C@H]1CC12CCN(CC)CC2)c1ncc(-c2cc(C(F)(F)F)ccc2OC)[nH]1 |
| 7.72 | 8.43 | 7.74 | 8.49 | CCC(=O)CCCCC[C@H](NC(=O)[C@H]1CC12CCN(C)CC2)c1ncc(-c2ccc(C)nc2OC)[nH]1 |
|  |  | 6.55 | 7.20 | CCC(=O)CCCCC[C@H](NC(=O)[C@H]1CC12CCN(CC)CC2)c1ncc(-c2cc(C(C)C)c(F)cc2OC)[nH]1 |
| 6.75 | 7.44 | 6.88 | 7.66 | CCC(=O)CCCCC[C@H](NC(=O)[C@H]1CC12CCN(C)CC2)c1ncc(-c2ccnc(N3CCOCC3)c2F)[nH]1 |
| 7.52 | 8.19 | 7.85 | 8.59 | CCC(=O)CCCCC[C@H](NC(=O)[C@H]1CC12CCN(C)CC2)c1ncc(-c2ccc(-c3cccnc3)nc2)[nH]1 |
| 6.13 | 6.84 | 6.23 | 7.00 | CCOc1ncc(-c2cnc([C@H](CCCCCC(=O)CC)NC(=O)[C@H]3CC34CCN(C)CC4)[nH]2)cn1 |
| 5.80 | 6.46 | 5.78 | 6.52 | CCC(=O)CCCCC[C@H](NC(=O)[C@H]1CC12CCN(C)CC2)c1ncc(C2=CC(=O)N(C)CC2)[nH]1 |
|  |  | 6.43 | 7.14 | CCC(=O)CCCCC[C@H](NC(=O)[C@H]1CC12CCN(CC)CC2)c1ncc(-c2c(F)cccc2OC)[nH]1 |
|  |  | 7.06 | 6.92 | CCC(=O)CCCCC[C@H](NC(=O)[C@H]1CC12CCN(CC)CC2)c1ncc(-c2ccc(C(=O)Nc3cc(C(F)(F)F)ccn3)cc2OC)[nH]1 |
| 7.19 | 7.85 | 7.15 | 7.92 | CCC(=O)CCCCC[C@H](NC(=O)[C@H]1CC12CCN(C)CC2)c1ncc(-c2ccc(-n3nc(C)cc3C)cc2)[nH]1 |
|  |  | 7.37 | 8.11 | CCC(=O)CCCCC[C@H](NC(=O)[C@H]1CC12CCN(CC)CC2)c1ncc(-c2cc([N+](=O)[O-])ccc2OC)[nH]1 |
|  |  | 8.04 | 8.96 | CCOC(=O)c1cc2cc(OC)c(-c3cnc([C@H](CCCCCC(=O)CC)NC(=O)[C@H]4CC45CCN(CC)CC5)[nH]3)cc2o1 |
| 6.79 | 7.55 | 7.04 | 7.85 | CCC(=O)CCCCC[C@H](NC(=O)[C@H]1CC12CCN(C)CC2)c1ncc(-c2cnc3cccnc3c2)[nH]1 |
| 7.27 | 8.04 | 7.15 | 7.96 | CCC(=O)CCCCC[C@H](NC(=O)[C@H]1CC12CCN(C)CC2)c1ncc(-c2ccc(C(=O)NC3CCOC3)cc2)[nH]1 (some centres not stated) |
|  |  | 6.31 | 6.99 | CCC(=O)CCCCC[C@H](NC(=O)[C@H]1CC12CCN(C)CC2)c1ncc(-c2cnc(-n3cc(C)cn3)nc2)[nH]1 |
| 8.96 |  |  |  | CCC(=O)CCCCC[C@H](NC(=O)[C@H]1CC12CCN(C)CC2)c1ncc(-c2ccc3[nH]c4ccccc4c3c2)[nH]1 |
|  |  | 8.85 | 7.85 | CCC(=O)CCCCC[C@H](NC(=O)[C@H]1CC12CCN(CC)CC2)c1ncc(C2=CCC(C)N=C2OC)[nH]1 (some centres not stated) |
|  |  | 7.41 | 8.16 | CCOC(=O)C1CC1c1ccc(OC)c(-c2cnc([C@H](CCCCCC(=O)CC)NC(=O)[C@H]3CC34CCN(CC)CC4)[nH]2)c1 (some centres not stated) |
|  |  | 6.49 | 7.66 | CCC(=O)CCCCC[C@H](NC(=O)[C@H]1CC12CCN(CC)CC2)c1ncc(-c2c(F)cc(C(=O)Nc3cc(C(F)(F)F)ccn3)cc2OC)[nH]1 |
|  |  | 6.81 | 7.51 | CCC(=O)CCCCC[C@H](NC(=O)[C@H]1CC12CCN(CC)CC2)c1ncc(-c2cc(C(=O)OC)c(F)cc2OC)[nH]1 |
|  |  | 7.20 | 7.89 | CCC(=O)CCCCC[C@H](NC(=O)[C@H]1CC12CCN(CC)CC2)c1ncc(-c2cccc(C(F)(F)F)c2OC)[nH]1 |
|  |  | 7.21 | 7.92 | CCC(=O)CCCCC[C@H](NC(=O)[C@H]1CC12CCN(CC)CC2)c1ncc(-c2cc(C#N)ccc2OC)[nH]1 |
|  |  | 5.81 | 6.22 | CCC(=O)CCCCC[C@H](NC(=O)[C@H]1CC12CCN(CC)CC2)c1ncc(-c2c(OC)ccc(F)c2F)[nH]1 |
